{"source": "patent US11116760B2", "about": "(Gilead Sciences, Inc., priority 2018, dated 2021)", "note": "pEC50: −log10 of the molar value."}
{"target": "α4β7 integrin (Homo sapiens (Human), UniProt P13612+P26010)", "sequence (P13612 34-1032)": "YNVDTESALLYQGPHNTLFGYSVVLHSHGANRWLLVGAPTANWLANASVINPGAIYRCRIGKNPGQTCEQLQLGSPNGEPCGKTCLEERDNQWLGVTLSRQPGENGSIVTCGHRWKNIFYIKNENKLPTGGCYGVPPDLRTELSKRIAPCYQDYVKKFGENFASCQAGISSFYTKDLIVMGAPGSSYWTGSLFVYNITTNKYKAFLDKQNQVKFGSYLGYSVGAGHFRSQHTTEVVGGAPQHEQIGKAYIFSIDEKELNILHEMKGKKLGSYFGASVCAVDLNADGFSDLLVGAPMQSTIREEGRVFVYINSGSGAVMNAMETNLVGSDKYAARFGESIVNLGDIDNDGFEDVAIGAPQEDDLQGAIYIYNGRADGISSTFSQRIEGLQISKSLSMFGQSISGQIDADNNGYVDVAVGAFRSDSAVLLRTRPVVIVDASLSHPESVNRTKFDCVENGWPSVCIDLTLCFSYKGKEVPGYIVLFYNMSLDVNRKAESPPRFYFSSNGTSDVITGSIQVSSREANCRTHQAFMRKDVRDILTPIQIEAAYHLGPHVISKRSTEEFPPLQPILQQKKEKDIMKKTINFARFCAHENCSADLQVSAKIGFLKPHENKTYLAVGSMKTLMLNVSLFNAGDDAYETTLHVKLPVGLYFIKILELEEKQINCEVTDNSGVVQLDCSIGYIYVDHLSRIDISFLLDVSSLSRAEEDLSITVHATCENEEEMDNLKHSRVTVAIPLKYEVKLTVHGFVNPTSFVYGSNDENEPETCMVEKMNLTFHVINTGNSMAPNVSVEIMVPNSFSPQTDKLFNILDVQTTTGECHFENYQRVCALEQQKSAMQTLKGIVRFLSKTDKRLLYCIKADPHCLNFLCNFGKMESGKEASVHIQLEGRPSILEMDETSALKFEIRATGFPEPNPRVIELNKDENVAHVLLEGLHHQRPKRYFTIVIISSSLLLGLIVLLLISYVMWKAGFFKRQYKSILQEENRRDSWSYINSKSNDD", "sequence (P26010 20-798)": "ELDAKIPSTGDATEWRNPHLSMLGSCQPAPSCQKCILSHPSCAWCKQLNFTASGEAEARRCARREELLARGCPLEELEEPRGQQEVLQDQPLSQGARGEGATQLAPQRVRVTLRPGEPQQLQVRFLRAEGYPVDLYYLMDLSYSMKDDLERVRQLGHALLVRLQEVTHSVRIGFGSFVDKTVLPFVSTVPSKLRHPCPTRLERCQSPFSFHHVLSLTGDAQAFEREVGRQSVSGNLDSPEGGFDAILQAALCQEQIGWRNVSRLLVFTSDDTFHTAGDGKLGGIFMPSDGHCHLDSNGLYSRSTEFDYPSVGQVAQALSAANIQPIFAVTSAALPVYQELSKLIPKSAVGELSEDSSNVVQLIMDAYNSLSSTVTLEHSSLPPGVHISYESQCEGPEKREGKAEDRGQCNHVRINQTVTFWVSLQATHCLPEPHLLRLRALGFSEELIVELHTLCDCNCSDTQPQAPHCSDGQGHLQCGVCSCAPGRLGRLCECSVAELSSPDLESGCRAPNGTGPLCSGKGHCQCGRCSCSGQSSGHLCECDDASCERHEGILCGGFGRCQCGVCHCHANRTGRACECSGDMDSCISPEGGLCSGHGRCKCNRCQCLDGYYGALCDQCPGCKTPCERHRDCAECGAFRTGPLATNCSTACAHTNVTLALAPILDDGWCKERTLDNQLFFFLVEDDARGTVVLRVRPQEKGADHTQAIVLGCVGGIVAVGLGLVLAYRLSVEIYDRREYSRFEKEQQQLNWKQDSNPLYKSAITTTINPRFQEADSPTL", "assay": "α4β7 Integrin Cell Capture Assay", "format": "cell-based", "conditions": "RPMI8866 cells captured on MadCAM-1 extracellular domain-coated plate"}
{"smiles": "Cc1cc(N2CCOC[C@@H]2C(F)(F)F)cc(F)c1C(=O)N[C@@H](Cc1cc(F)c(-c2cc3cnccc3n(C)c2=O)c2ncccc12)C(=O)O", "note": "[Example 464]", "pEC50": 9.89}
{"smiles": "Cc1cnc(-c2ccc(C[C@H](NC(=O)c3c(C)cc(N4CCOC[C@@H]4C(F)(F)F)cc3F)C(=O)O)c3cccnc23)nc1C", "note": "[Example 482]", "pEC50": 8.83}
{"smiles": "CC[C@@H](Nc1cc(F)c(C(=O)N[C@@H](Cc2ccc(-c3cc(OC)cn(C)c3=O)c3ncccc23)C(=O)O)c(F)c1)C(F)(F)F", "note": "[Example 481]", "pEC50": 8.83}
{"target": "α4β7 integrin (Homo sapiens (Human), UniProt P13612+P26010)", "assay": "α4β7 Integrin Cell Capture Assay", "format": "cell-based", "conditions": "Table 1; capture of α4β7 expressing RPM18866 cells on MadCAM-1 extracellular domain-coated plate"}
{"smiles": "N#Cc1ccccc1-c1ccc(C[C@H](NC(=O)c2c(F)cc(NS(=O)(=O)c3ccc(-c4ccnc(F)c4)cc3)cc2F)C(=O)O)c2cccnc12", "note": "[Example 59, (S)-3-(8-(2-cyanophenyl)quinolin-5-yl)-2-(2,6-difluoro-4-((4-(2-fluoropyridin-4-yl)phenyl)sulfonamido)benzamido)propanoic acid]", "pEC50": 8.49}
{"smiles": "Cn1c(=O)c(-c2ccc(C[C@H](NC(=O)c3c(F)cc(N4CCOC[C@@H]4C(F)(F)F)cc3F)C(=O)O)c3cccnc23)cc2ccccc21", "note": "[Example 104, (S)-2-(2,6-difluoro-4-((R)-3-(trifluoromethyl)morpholino)benzamido)-3-(1-methyl-2-oxo-1,2-dihydro-[3,8′-biquinolin]-5′-yl)propanoic acid]", "pEC50": 9.30}
{"smiles": "Cc1cc(C(F)(F)F)c(-c2ccc(C[C@H](NC(=O)c3c(F)cc(N4CCC[C@@H]4C(F)(F)F)cc3F)C(=O)O)c3cccnc23)c(=O)n1C", "note": "[Example 132, (S)-2-(2,6-difluoro-4-((R)-2-(trifluoromethyl)pyrrolidin-1-yl)benzamido)-3-(8-(1,6-dimethyl-2-oxo-4-(trifluoromethyl)-1,2-dihydropyridin-3-yl)quinolin-5-yl)propanoic acid]", "pEC50": 8.89}
{"smiles": "Cc1cc(N2CCOC[C@@H]2C(F)(F)F)cc(F)c1C(=O)N[C@@H](Cc1ccc(-c2c(C(F)(F)F)cc(C)n(C)c2=O)c2ncccc12)C(=O)O", "note": "[Example 141, (S)-3-(8-(1,6-dimethyl-2-oxo-4-(trifluoromethyl)-1,2-dihydropyridin-3-yl)quinolin-5-yl)-2-(2-fluoro-6-methyl-4-((R)-3-(trifluoromethyl)morpholino)benzamido)propanoic acid]", "pEC50": 10.00}
{"smiles": "CC[C@@H](Nc1cc(F)c(C(=O)N[C@@H](Cc2ccc(-c3c(C(F)(F)F)cc(C)n(C)c3=O)c3ncc(N(C)C)cc23)C(=O)O)c(F)c1)C(F)(F)F", "note": "[Example 139, (S)-2-(2,6-difluoro-4-(((R)-1,1,1-trifluorobutan-2-yl)amino)benzamido)-3-(8-(1,6-dimethyl-2-oxo-4-(trifluoromethyl)-1,2-dihydropyridin-3-yl)-3-(dimethylamino)quinolin-5-yl)propanoic acid]", "pEC50": 7.93}
{"smiles": "Cc1cc(C(F)(F)F)c(-c2ccc(C[C@H](NC(=O)c3c(F)cc(N4CCOC[C@@H]4C(F)(F)F)cc3F)C(=O)O)c3cccnc23)nc1C", "note": "[Example 94, (S)-2-(2,6-difluoro-4-((R)-3-(trifluoromethyl)morpholino)benzamido)-3-(8-(5,6-dimethyl-3-(trifluoromethyl)pyridin-2-yl)quinolin-5-yl)propanoic acid]", "pEC50": 9.30}
{"smiles": "Cc1cc(C(F)(F)F)c(-c2ccc(C[C@H](NC(=O)c3c(F)cccc3F)C(=O)O)c3cccnc23)nc1C", "note": "[Example 12, (S)-2-(2,6-difluorobenzamido)-3-(8-(5,6-dimethyl-3-(trifluoromethyl)pyridin-2-yl)quinolin-5-yl)propanoic acid]", "pEC50": 8.15}
{"smiles": "CS(=O)(=O)Cc1cc(F)c(C(=O)N[C@@H](Cc2ccc(-c3ccc(C#N)cc3Cl)c3ncccc23)C(=O)O)c(F)c1", "note": "[Example 48, (S)-3-(8-(2-chloro-4-cyanophenyl)quinolin-5-yl)-2-(2,6-difluoro-4-((methylsulfonyl)methyl)benzamido)propanoic acid]", "pEC50": 7.28}
{"smiles": "N#Cc1ccc(-c2ccc(C[C@H](NC(=O)c3c(F)cc(N[C@H](C4CC4)C(F)(F)F)cc3F)C(=O)O)c3cccnc23)c(Cl)c1", "note": "[Example 90]", "pEC50": 7.95}
{"smiles": "CC[C@H](C)Nc1cc(F)c(C(=O)N[C@@H](Cc2ccc(-c3c(C(F)(F)F)cc(C)n(C)c3=O)c3ncccc23)C(=O)O)c(F)c1", "note": "[Example 134, (S)-2-(4-(((S)-sec-butyl)amino)-2,6-difluorobenzamido)-3-(8-(1,6-dimethyl-2-oxo-4-(trifluoromethyl)-1,2-dihydropyridin-3-yl)quinolin-5-yl)propanoic acid]", "pEC50": 8.38}
{"smiles": "COc1cc(C)n(C)c(=O)c1-c1ccc(C[C@H](NC(=O)c2c(F)cc(N3CCOC[C@@H]3C(F)(F)F)cc2F)C(=O)O)c2cccnc12", "note": "[Example 102, (S)-2-(2,6-difluoro-4-((R)-3-(trifluoromethyl)morpholino)benzamido)-3-(8-(4-methoxy-1,6-dimethyl-2-oxo-1,2-dihydropyridin-3-yl)quinolin-5-yl)propanoic acid]", "pEC50": 9.52}
{"smiles": "CCOCc1cc(OC)c(-c2ccc(C[C@H](NC(=O)c3c(F)cccc3F)C(=O)O)c3ccc(C)nc23)c(OC)c1", "note": "[Example 31, (S)-2-(2,6-difluorobenzamido)-3-(8-(4-(ethoxymethyl)-2,6-dimethoxyphenyl)-2-methylquinolin-5-yl)propanoic acid]", "pEC50": 7.71}
{"smiles": "CC[C@@H](Nc1cc(F)c(C(=O)N[C@@H](Cc2ccc(-c3c(OC)cc(CN4CCOCC4)cc3OC)c3ncccc23)C(=O)O)c(F)c1)C(F)(F)F", "note": "[Example 121, (S)-2-(2,6-difluoro-4-(((R)-1,1,1-trifluorobutan-2-yl)amino)benzamido)-3-(8-(2,6-dimethoxy-4-(morpholinomethyl)phenyl)quinolin-5-yl)propanoic acid]", "pEC50": 8.77}
{"target": "α4β7 integrin (Homo sapiens (Human), UniProt P13612+P26010)", "assay": "α4β7 Integrin Cell Capture Assay", "format": "cell-based", "conditions": "Table 2; capture of α4β7 expressing RPM18866 cells on MadCAM-1 extracellular domain-coated plate"}
{"smiles": "CC(=O)Cc1cc(F)c(C(=O)N[C@@H](Cc2ccc(-c3ccc(C#N)cc3Cl)c3ncccc23)C(=O)O)c(F)c1", "note": "[Example 221]", "pEC50": 7.32}
{"smiles": "C[C@@H](Nc1cc(F)c(C(=O)N[C@@H](Cc2ccc(-c3c(Cl)cc(C#N)cc3Cl)c3ncccc23)C(=O)O)c(F)c1)C(F)(F)F", "note": "[Example 288]", "pEC50": 8.24}
{"smiles": "O=C(N[C@@H](Cc1ccc(-c2ccc3c4c(ccnc24)CCO3)c2ncccc12)C(=O)O)c1c(F)cccc1F", "note": "[Example 306]", "pEC50": 7.95}
{"smiles": "Cc1cnc(-c2ccc(C[C@H](NC(=O)c3c(F)cc(N4CCOC[C@@H]4C(F)(F)F)cc3F)C(=O)O)c3cccnc23)c(N(C)C)c1", "note": "[Example 277]", "pEC50": 8.28}
{"smiles": "CC[C@@H](Nc1cc(F)c(C(=O)N[C@@H](Cc2ccc(-c3c(C(F)F)cc(C)n(C)c3=O)c3ncccc23)C(=O)O)c(F)c1)C(F)(F)F", "note": "[Example 167]", "pEC50": 9.40}
{"smiles": "Cn1c(C2CC2)cc(C(F)(F)F)c(-c2ccc(C[C@H](NC(=O)c3c(F)cc(N4CCOC[C@@H]4C(F)(F)F)cc3F)C(=O)O)c3cccnc23)c1=O", "note": "[Example 158]", "pEC50": 9.52}
{"smiles": "CC[C@@H](Nc1cc(F)c(C(=O)N[C@@H](Cc2ccc(-c3nc(C)cn(C)c3=O)c3ncccc23)C(=O)O)c(F)c1)C(F)(F)F", "note": "[Example 209]", "pEC50": 8.72}
{"smiles": "Cc1c(N(C)C)cn(C)c(=O)c1-c1ccc(C[C@H](NC(=O)c2c(F)cc(N3CCOC[C@@H]3C(F)(F)F)cc2F)C(=O)O)c2cccnc12", "note": "[Example 242]", "pEC50": 8.55}
{"smiles": "Cc1ccnc(-c2ccc(C[C@H](NC(=O)c3c(F)cc(N4CCOC[C@@H]4C(F)(F)F)cc3F)C(=O)O)c3cccnc23)n1", "note": "[Example 263]", "pEC50": 8.40}
{"smiles": "N#Cc1ccc(-c2ccc(C[C@H](NC(=O)c3c(F)cc(N4CCC(F)(F)CC4)cc3F)C(=O)O)c3cccnc23)c(Cl)c1", "note": "[Example 220]", "pEC50": 7.34}
{"smiles": "C[C@@H](Nc1cc(F)c(C(=O)N[C@@H](Cc2ccc(-c3ncccc3C(F)(F)F)c3ncccc23)C(=O)O)c(F)c1)C(F)(F)F", "note": "[Example 283]", "pEC50": 8.24}
{"smiles": "N#Cc1cc(Cl)c(-c2ccc(C[C@H](NC(=O)c3c(Cl)cccc3Cl)C(=O)O)c3cc(F)cnc23)c(Cl)c1", "note": "[Example 304]", "pEC50": 8.02}
{"smiles": "Cc1cc(C)n(C)c(=O)c1-c1ccc(C[C@H](NC(=O)c2c(F)cc(N3CCCC[C@@H]3C(F)(F)F)cc2F)C(=O)O)c2cccnc12", "note": "[Example 202]", "pEC50": 8.82}
{"smiles": "N#Cc1ccc(-c2ccc(C[C@H](NC(=O)c3c(F)cc(O[C@H](c4ccccc4)C(F)(F)F)cc3F)C(=O)O)c3cccnc23)c(Cl)c1", "note": "[Example 175]", "pEC50": 7.01}
{"smiles": "CCC(CC)Nc1cc(F)c(C(=O)N[C@@H](Cc2ccc(-c3c(C(F)(F)F)cc(C)n(C)c3=O)c3ncccc23)C(=O)O)c(F)c1", "note": "[Example 272]", "pEC50": 8.35}
{"smiles": "CCOCc1cc(OC)c(-c2ccc(C[C@H](NC(=O)c3c(Cl)cc4[nH]ccc4c3Cl)C(=O)O)c3cccnc23)c(OC)c1", "note": "[Example 235]", "pEC50": 8.64}
{"smiles": "CC[C@@H](Nc1cc(F)c(C(=O)N[C@@H](Cc2ccc(-c3c(C(F)(F)F)cc(C)n(C)c3=O)c3nc(C)ccc23)C(=O)O)c(F)c1)C(F)(F)F", "note": "[Example 183]", "pEC50": 9.05}
{"smiles": "CC[C@@H](Nc1cc(F)c(C(=O)N[C@@H](Cc2ccc(-c3ncccc3C(C)C)c3ncccc23)C(=O)O)c(F)c1)C(F)(F)F", "note": "[Example 305]", "pEC50": 7.99}
{"smiles": "N#Cc1ccc(-c2ccc(C[C@H](NC(=O)c3c(F)cc(NC4(C(F)(F)F)CC4)cc3F)C(=O)O)c3cccnc23)c(Cl)c1", "note": "[Example 229]", "pEC50": 7.22}
{"smiles": "O=C(N[C@@H](Cc1ccc(Oc2nccc3ccccc23)c2ncccc12)C(=O)O)c1c(Cl)cccc1Cl", "note": "[Example 157]", "pEC50": 7.36}
